Reference: ChEMBL document CHEMBL1759913, “Discovery of the first non-ATP competitive IGF-1R kinase inhibitors: advantages in comparison with competitive inhibitors” (Bioorg Med Chem Lett, 2011)
pIC50: −log10 of the molar value. In brackets after ≈: the same amount, converted by molar mass. Each block holds one compound with its values, some of them ahead of it.

Legend:
Cytochrome P450 3A4 = Cytochrome P450 3A4 (Homo sapiens, UniProt P08684); test: Inhibition of CYP3A4; assay type: ADME
[1] = Oral bioavailability in BALB/c mouse at 10 mg/kg; assay type: ADME, organism-based; details: in vivo
Cytochrome P450 2C9 = Cytochrome P450 2C9 (Homo sapiens, UniProt P11712); test: Inhibition of CYP2C9; assay type: ADME
Cytochrome P450 2C9, sequence (P11712 whole entry): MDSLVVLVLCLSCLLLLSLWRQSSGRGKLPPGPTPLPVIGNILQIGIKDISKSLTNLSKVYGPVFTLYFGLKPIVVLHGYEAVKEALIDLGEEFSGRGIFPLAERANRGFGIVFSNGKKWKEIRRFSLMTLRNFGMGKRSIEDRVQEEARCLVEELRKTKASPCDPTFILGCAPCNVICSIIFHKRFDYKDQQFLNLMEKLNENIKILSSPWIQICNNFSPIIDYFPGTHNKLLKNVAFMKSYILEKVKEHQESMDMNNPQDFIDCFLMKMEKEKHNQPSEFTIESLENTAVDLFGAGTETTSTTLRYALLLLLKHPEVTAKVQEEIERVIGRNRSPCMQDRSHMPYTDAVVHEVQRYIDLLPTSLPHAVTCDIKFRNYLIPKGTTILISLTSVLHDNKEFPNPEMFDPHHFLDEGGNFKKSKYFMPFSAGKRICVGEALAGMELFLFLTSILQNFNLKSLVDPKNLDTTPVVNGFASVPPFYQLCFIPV

Cytochrome P450 2C19 = Cytochrome P450 2C19 (Homo sapiens, UniProt P33261); test: Inhibition of CYP2C19; assay type: ADME
Cytochrome P450 2C19, sequence (P33261 whole entry): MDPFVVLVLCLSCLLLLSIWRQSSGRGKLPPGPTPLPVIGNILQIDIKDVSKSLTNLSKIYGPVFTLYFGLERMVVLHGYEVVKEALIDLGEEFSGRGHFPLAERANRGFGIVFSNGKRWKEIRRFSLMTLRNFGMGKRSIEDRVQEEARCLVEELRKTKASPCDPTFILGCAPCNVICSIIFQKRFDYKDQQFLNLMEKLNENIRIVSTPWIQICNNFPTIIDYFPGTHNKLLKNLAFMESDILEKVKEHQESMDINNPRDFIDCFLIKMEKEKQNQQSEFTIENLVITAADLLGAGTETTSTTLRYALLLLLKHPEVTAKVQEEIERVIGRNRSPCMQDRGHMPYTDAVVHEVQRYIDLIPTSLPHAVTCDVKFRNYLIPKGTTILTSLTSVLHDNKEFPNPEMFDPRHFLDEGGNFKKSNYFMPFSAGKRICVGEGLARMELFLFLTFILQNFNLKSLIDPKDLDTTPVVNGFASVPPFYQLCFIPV

Cytochrome P450 1A2 = target: T1, Cytochrome P450 1A2 (Homo sapiens, UniProt P05177); test: Inhibition of CYP1A2; assay type: ADME
T1 sequence (P05177 whole entry): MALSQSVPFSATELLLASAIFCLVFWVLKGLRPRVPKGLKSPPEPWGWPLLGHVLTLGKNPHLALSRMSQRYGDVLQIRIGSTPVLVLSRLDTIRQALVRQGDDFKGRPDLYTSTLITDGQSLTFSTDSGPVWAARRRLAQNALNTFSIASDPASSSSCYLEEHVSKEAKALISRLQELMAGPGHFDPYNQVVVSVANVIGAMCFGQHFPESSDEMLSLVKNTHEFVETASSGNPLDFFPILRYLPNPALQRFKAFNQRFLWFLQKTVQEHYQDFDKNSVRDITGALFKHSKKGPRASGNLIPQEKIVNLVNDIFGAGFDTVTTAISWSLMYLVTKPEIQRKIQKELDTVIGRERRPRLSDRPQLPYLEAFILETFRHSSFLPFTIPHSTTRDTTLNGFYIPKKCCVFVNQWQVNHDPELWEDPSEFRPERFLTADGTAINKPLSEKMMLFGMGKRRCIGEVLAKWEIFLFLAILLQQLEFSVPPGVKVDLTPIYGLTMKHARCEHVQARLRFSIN

[2] = Metabolic stability in mouse liver microsomes assessed as compound remaining after 15 mins
[3] = Metabolic stability in human microsomes assessed as compound remaining after 15 mins; assay type: ADME, Microsome; details: read-out: Stability
[4] = Cmax in BALB/c mouse plasma at 10 mg/kg, po upto 24 hrs; assay type: ADME, organism-based; set-up: dose 10 mg/kg, route oral
Insulin receptor = Insulin receptor (Homo sapiens, UniProt P06213); test: Inhibition of insulin receptor kinase
Insulin receptor, sequence (P06213 28-758 limits assumed): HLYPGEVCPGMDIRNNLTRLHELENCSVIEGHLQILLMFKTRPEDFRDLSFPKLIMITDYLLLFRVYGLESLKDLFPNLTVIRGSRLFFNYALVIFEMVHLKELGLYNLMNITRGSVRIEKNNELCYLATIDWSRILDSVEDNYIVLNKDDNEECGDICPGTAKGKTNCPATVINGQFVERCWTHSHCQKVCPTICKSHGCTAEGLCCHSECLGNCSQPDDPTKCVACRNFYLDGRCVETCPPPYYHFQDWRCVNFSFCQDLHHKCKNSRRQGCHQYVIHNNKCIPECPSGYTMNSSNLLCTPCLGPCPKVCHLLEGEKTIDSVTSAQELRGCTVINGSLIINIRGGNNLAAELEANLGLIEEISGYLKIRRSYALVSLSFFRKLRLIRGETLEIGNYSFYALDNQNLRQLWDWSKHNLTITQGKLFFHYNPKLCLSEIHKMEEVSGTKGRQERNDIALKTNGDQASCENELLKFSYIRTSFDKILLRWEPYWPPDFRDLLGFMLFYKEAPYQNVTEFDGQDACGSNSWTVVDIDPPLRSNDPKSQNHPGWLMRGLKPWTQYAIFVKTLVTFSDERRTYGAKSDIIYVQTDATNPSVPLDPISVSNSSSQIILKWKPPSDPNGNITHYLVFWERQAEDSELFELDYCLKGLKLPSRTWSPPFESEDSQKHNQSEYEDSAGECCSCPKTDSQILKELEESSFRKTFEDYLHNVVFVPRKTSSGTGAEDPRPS
Insulin receptor, sequence (P06213 763-1382 limits assumed): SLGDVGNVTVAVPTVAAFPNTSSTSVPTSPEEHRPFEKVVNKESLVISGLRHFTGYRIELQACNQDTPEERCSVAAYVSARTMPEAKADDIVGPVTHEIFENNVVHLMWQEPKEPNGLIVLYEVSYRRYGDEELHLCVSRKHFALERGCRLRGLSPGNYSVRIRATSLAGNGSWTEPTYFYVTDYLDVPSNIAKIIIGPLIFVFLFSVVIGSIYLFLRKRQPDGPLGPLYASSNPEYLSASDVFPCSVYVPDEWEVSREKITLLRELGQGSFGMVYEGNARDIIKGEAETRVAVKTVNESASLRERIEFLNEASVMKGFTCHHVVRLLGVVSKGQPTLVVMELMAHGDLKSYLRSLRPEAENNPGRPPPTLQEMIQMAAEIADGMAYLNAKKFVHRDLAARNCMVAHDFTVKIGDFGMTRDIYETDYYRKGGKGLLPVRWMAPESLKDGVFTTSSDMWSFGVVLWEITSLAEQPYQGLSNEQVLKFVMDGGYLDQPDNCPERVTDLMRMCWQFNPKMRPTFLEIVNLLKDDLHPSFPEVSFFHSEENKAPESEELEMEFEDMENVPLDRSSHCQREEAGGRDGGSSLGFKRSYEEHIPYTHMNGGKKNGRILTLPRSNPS

Cytochrome P450 2D6 = Cytochrome P450 2D6 (Homo sapiens, UniProt P10635); test: Inhibition of CYP2D6; assay type: ADME
Cytochrome P450 2D6, sequence (P10635 whole entry): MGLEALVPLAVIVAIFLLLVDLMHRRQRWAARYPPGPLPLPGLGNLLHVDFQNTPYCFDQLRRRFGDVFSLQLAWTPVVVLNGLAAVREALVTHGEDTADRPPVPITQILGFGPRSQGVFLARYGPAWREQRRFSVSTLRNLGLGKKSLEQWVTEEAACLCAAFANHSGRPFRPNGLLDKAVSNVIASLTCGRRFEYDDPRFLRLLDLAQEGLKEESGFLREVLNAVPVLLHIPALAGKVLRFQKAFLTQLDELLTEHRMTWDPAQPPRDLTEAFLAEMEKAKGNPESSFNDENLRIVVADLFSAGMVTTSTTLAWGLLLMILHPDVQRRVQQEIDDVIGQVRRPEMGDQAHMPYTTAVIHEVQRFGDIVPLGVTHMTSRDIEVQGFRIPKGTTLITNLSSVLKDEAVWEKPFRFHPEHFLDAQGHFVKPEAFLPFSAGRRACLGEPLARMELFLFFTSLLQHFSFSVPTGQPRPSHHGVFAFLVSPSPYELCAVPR

MEF = test: Antiproliferative activity against mouse MEF cells transfected with human IGF1R assessed as inhibition of IGF1-induced proliferation after 72 hrs by [14C]thymidine incorporation assay; assay type: functional, cell-based
[5] = Solubility of compound; assay type: physicochemical
[6] = AUC (0 to infinity) in BALB/c mouse at 10 mg/kg, po; assay type: ADME, organism-based; set-up: time infinity, dose 10 mg/kg, route oral; details: plasma
[7] = target: T2, Insulin-like growth factor 1 receptor (Homo sapiens, UniProt P08069); test: Inhibition of IGF-induced autophosphosphorylation of GST-tagged human IGF1R expressed in baculovirus-SF21 cell system preincubated for 10 mins by time resolved-fluorescent assay
T2 sequence (P08069 31-736 limits assumed): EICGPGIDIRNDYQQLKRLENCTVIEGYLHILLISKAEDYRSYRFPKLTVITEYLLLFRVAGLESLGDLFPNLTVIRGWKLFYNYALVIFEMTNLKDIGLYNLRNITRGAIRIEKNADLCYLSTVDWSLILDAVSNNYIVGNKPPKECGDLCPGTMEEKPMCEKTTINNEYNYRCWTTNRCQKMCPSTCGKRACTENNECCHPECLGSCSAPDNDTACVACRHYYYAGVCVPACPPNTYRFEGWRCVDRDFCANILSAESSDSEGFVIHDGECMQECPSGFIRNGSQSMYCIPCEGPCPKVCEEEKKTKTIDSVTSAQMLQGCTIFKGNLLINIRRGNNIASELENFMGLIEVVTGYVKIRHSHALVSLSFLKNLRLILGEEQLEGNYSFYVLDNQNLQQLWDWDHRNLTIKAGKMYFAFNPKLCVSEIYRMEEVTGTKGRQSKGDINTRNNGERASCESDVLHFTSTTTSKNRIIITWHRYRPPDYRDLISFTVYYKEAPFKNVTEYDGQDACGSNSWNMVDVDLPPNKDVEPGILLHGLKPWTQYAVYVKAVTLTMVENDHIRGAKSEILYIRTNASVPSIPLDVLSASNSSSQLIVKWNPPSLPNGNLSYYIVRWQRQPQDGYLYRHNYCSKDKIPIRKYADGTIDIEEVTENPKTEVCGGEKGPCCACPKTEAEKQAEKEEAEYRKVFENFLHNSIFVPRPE
T2 sequence (P08069 741-1367 limits assumed): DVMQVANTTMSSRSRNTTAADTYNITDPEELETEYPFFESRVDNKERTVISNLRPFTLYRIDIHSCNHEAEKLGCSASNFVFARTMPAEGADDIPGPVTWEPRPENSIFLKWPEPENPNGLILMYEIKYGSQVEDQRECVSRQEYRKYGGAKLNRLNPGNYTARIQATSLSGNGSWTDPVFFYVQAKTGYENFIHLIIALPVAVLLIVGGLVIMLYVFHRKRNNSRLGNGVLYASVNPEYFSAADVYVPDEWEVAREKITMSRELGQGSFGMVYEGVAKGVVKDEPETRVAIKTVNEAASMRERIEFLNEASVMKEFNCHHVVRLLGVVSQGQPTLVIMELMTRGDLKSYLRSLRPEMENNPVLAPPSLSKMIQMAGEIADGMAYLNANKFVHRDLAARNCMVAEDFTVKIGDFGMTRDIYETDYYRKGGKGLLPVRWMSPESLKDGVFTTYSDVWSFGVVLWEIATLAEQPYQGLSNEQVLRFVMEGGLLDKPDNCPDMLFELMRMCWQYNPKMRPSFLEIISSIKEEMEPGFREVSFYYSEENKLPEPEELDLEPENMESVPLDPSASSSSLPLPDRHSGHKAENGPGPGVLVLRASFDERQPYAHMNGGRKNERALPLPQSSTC

[8] = target: T2, Insulin-like growth factor 1 receptor; test: Inhibition of IGF-induced autophosphosphorylation of GST-tagged human IGF1R expressed in baculovirus-SF21 cell system preincubated for 30 mins by time resolved-fluorescent assay
[9] = target: T2, Insulin-like growth factor 1 receptor; test: Inhibition of autophosphosphorylation of human IGF1R expressed in IGF1-stimulated MCF7 cells by ELISA; assay type: cell-based
[10] = target: T2, Insulin-like growth factor 1 receptor; test: Inhibition of autophosphosphorylation of human IGF1R expressed in IGF1-stimulated MCF7 cells preincubated for 60 mins by ELISA; assay type: cell-based
[11] = target: T2, Insulin-like growth factor 1 receptor; test: Inhibition of IGF-induced autophosphosphorylation of GST-tagged human IGF1R expressed in baculovirus-SF21 cell system preincubated for 5 mins by time resolved-fluorescent assay
[12] = target: T2, Insulin-like growth factor 1 receptor; test: Inhibition of IGF-induced autophosphosphorylation of GST-tagged human IGF1R expressed in SF21 cells by time resolved-fluorescent assay
[13] = target: T2, Insulin-like growth factor 1 receptor; test: Inhibition of IGF-induced autophosphosphorylation of GST-tagged human IGF1R expressed in baculovirus-SF21 cell system preincubated for 60 mins by time resolved-fluorescent assay
[14] = target: T2, Insulin-like growth factor 1 receptor; test: Inhibition of IGF-induced autophosphosphorylation of GST-tagged human IGF1R expressed in SF21 cells after 10 mins by time resolved-fluorescent assay

Cytochrome P450 3A4, sequence (P08684 whole entry): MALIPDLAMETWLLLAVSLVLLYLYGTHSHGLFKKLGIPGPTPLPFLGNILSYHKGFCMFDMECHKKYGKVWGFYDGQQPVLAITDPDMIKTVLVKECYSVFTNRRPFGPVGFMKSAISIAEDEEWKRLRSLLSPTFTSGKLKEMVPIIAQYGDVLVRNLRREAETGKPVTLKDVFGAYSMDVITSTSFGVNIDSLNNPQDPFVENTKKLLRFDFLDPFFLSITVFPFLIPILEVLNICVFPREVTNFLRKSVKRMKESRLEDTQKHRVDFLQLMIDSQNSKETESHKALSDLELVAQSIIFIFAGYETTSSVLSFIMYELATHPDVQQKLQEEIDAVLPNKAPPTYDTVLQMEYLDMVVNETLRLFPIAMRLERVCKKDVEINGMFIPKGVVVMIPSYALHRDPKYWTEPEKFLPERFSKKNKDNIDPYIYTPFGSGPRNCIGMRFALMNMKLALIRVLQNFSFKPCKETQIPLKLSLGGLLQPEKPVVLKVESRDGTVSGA

- pIC50 (Cytochrome P450 3A4): < 4.82
- bioavailability [1]: > 100%
- pIC50 (Cytochrome P450 2C9): 6.15
- pIC50 (Cytochrome P450 2C19): < 4.82
- pIC50 (Cytochrome P450 1A2): < 4.82
- remaining at 0.25 h [2]: 83%
- remaining at 0.25 h [3]: 82%
- Cmax [4]: 1490 ng/mL
- pIC50 (Insulin receptor): 6.52
- pIC50 (Cytochrome P450 2D6): < 4.82
- solubility [5]: 9.9 µg/mL (≈ 21.4 µM)
- AUC(0-inf) [6]: 13200 ng·h/mL
Compound: C[C@H]1C(=O)N(c2ccc(S(=O)(=O)C(F)(F)F)cc2)C(=O)N1Cc1ccnc2ccccc12
- pIC50 (MEF): 6.52

- pIC50 [7]: 7.47
- pIC50 [8]: 7.48
- pIC50 [9]: 6.84
- pIC50 [10]: 6.74
- pIC50 [11]: 7.47
- pIC50 [12]: 7.26
- pIC50 [13]: 7.46
Compound: COc1cc2c(-c3cc4cccnc4[nH]3)cn(C)c2cc1OC
- pIC50 (MEF): 5.80

- pIC50 [12]: 5.60
Compound: C[C@H]1C(=O)N(c2ccc([S+]([O-])C(F)(F)F)cc2)C(=O)N1Cc1ccnc2ccccc12 (stereo not given in full)

- pIC50 [12]: < 4.00
Compound: C[C@H]1C(=O)N(c2ccc(S(C)(=O)=O)cc2)C(=O)N1Cc1ccnc2ccccc12

- pIC50 [12]: 5.27
Compound: O=C1CN(Cc2ccnc3ccccc23)C(=O)N1c1ccc(S(=O)(=O)C(F)(F)F)cc1

- pIC50 [12]: 6.34
Compound: CC1(C)C(=O)N(c2ccc(S(=O)(=O)C(F)(F)F)cc2)C(=O)N1Cc1ccnc2ccccc12

- pIC50 [9]: 6.93
- pIC50 [14]: 6.58
- pIC50 [12]: 6.58
Compound: CC1(C)C(=O)N(c2ccc(SC(F)(F)F)cc2)C(=O)N1Cc1ccncc1
- pIC50 (MEF): 6.55

- pIC50 [12]: < 5.00
Compound: CC1(C)C(=O)N(c2ccc(SC(F)(F)F)cc2)C(=O)N1Cc1ccnc(N2CCCCC2)c1

- pIC50 [12]: < 5.00
Compound: CC1(C)C(=O)N(c2ccc(SC(F)(F)F)cc2)C(=O)N1Cc1ccnc(N2CCOCC2)c1

- pIC50 [12]: < 5.00
Compound: CN1CCN(c2cc(CN3C(=O)N(c4ccc(SC(F)(F)F)cc4)C(=O)C3(C)C)ccn2)CC1

- pIC50 [12]: < 5.00
Compound: CC1(C)C(=O)N(c2ccc(SC(F)(F)F)cc2)C(=O)N1Cc1ccnc(N2CCNCC2)c1

- pIC50 [12]: < 5.00
Compound: CC1(C)C(=O)N(c2ccc(SC(F)(F)F)cc2)C(=O)N1Cc1ccnc(C#N)c1

- pIC50 [12]: < 5.00
Compound: CC1(C)C(=O)N(c2ccc(SC(F)(F)F)cc2)C(=O)N1Cc1ccnc(C(=O)O)c1

- pIC50 [12]: 5.33
Compound: CC1(C)C(=O)N(c2ccc(SC(F)(F)F)cc2)C(=O)N1Cc1ccnc(NS(C)(=O)=O)c1

- pIC50 [12]: 5.35
Compound: CN(C)c1cc(CN2C(=O)N(c3ccc(SC(F)(F)F)cc3)C(=O)C2(C)C)ccn1

- pIC50 [12]: 5.53
Compound: CC1(C)C(=O)N(c2ccc(SC(F)(F)F)cc2)C(=O)N1Cc1ccnc(C(N)=O)c1

- pIC50 [12]: 5.73
Compound: CCOc1cc(CN2C(=O)N(c3ccc(SC(F)(F)F)cc3)C(=O)C2(C)C)ccn1

- pIC50 [12]: 5.91
Compound: CC1(C)C(=O)N(c2ccc(SC(F)(F)F)cc2)C(=O)N1Cc1ccnc(NC2CCCCC2)c1

- pIC50 [12]: 5.96
Compound: COc1ccc(CNc2cc(CN3C(=O)N(c4ccc(SC(F)(F)F)cc4)C(=O)C3(C)C)ccn2)cc1

- pIC50 [12]: 5.97
Compound: CC1(C)C(=O)N(c2ccc(SC(F)(F)F)cc2)C(=O)N1Cc1ccnc(Nc2ccccc2)c1

- pIC50 [12]: 5.98
Compound: CC1(C)C(=O)N(c2ccc(SC(F)(F)F)cc2)C(=O)N1Cc1ccnc(NCc2ccccc2)c1

- pIC50 [12]: 6.00
Compound: CC1(C)C(=O)N(c2ccc(SC(F)(F)F)cc2)C(=O)N1Cc1ccnc(Cl)c1

- pIC50 [12]: 6.11
Compound: CC(C)(C)OC(=O)Nc1cc(CN2C(=O)N(c3ccc(SC(F)(F)F)cc3)C(=O)C2(C)C)ccn1

- pIC50 [12]: 6.15
Compound: CNC(=O)c1cc(CN2C(=O)N(c3ccc(SC(F)(F)F)cc3)C(=O)C2(C)C)ccn1

- pIC50 [12]: 6.24
Compound: CCc1cc(CN2C(=O)N(c3ccc(SC(F)(F)F)cc3)C(=O)C2(C)C)ccn1

- pIC50 [12]: 6.34
Compound: CC(C)Nc1cc(CN2C(=O)N(c3ccc(SC(F)(F)F)cc3)C(=O)C2(C)C)ccn1

Compound: CNc1cc(CN2C(=O)N(c3ccc(SC(F)(F)F)cc3)C(=O)C2(C)C)ccn1
- pIC50 (MEF): 6.51

- pIC50 [9]: 7.33
- pIC50 [14]: 6.81
- pIC50 [12]: 6.81
Compound: CCNc1cc(CN2C(=O)N(c3ccc(SC(F)(F)F)cc3)C(=O)C2(C)C)ccn1
- pIC50 (MEF): 6.98

- pIC50 [7]: 7.06
- pIC50 [8]: 7.55
- pIC50 [9]: 8.15
- pIC50 [10]: 8.15
- pIC50 [14]: 7.01
- pIC50 [11]: 6.76
- pIC50 [12]: 7.01
- pIC50 [13]: 8.15
Compound: CC(=O)Nc1cc(CN2C(=O)N(c3ccc(SC(F)(F)F)cc3)C(=O)C2(C)C)ccn1
- pIC50 (MEF): 8.10

- pIC50 [9]: 7.47
- pIC50 [14]: 7.04
- pIC50 [12]: 7.04
Compound: CC1(C)C(=O)N(c2ccc(SC(F)(F)F)cc2)C(=O)N1Cc1ccnc(N)c1
- pIC50 (MEF): 7.01

- pIC50 [12]: 5.80
Compound: C[C@H]1C(=O)N(c2ccc(S(=O)(=O)C(F)(F)F)cc2)C(=O)N1Cc1ccncc1

- pIC50 [12]: 4.10
Compound: C[C@H]1C(=O)N(c2ccc(S(=O)(=O)C(F)(F)F)cc2)C(=O)N1Cc1cccnc1

- pIC50 [12]: < 4.00
Compound: C[C@H]1C(=O)N(c2ccc(S(=O)(=O)C(F)(F)F)cc2)C(=O)N1Cc1ccccn1

- pIC50 [12]: < 4.00
Compound: C[C@H]1C(=O)N(c2ccc(S(=O)(=O)C(F)(F)F)cc2)C(=O)N1Cc1cnc2ccccc2c1

- pIC50 [12]: < 4.00
Compound: C[C@H]1C(=O)N(c2ccc(S(=O)(=O)C(F)(F)F)cc2)C(=O)N1Cc1c[nH]cn1

- pIC50 [12]: < 4.00
Compound: C[C@H]1C(=O)N(c2ccc(S(=O)(=O)C(F)(F)F)cc2)C(=O)N1CC1CCNCC1

- pIC50 [12]: < 4.00
Compound: C[C@H]1C(=O)N(c2ccc(S(=O)(=O)C(F)(F)F)cc2)C(=O)N1Cc1ccccc1

- pIC50 [12]: < 4.00
Compound: C[C@H]1C(=O)N(c2ccc(S(=O)(=O)C(F)(F)F)cc2)C(=O)N1Cc1cc[n+]([O-])cc1

- pIC50 [12]: < 4.00
Compound: C[C@H]1C(=O)N(c2ccc(S(=O)(=O)C(F)(F)F)cc2)C(=O)N1Cc1cc[n+]([O-])c2ccccc12
